In article PMC4399838, “Antipsychotic-Like Effect of the Muscarinic Acetylcholine Receptor Agonist BuTAC in Non-Human Primates” (PLoS ONE, 2015):

Tests used:
[1] = target: M3AChR (Homo sapiens, UniProt P20309); assay: Competitive radioligand binding; details: competitive binding; negative log-transformed; read-out: pKi (converted)
[2] = target: T1, human M5 muscarinic receptor (Homo sapiens, UniProt P08912); assay: GTP-γ-[35S] binding, antibody capture SPA (agonist and antagonist mode); assay type: biochemical
T1 construct: purchased PerkinElmer Life and Analytical Sciences, Boston, MA
T1 sequence (P08912 1-532): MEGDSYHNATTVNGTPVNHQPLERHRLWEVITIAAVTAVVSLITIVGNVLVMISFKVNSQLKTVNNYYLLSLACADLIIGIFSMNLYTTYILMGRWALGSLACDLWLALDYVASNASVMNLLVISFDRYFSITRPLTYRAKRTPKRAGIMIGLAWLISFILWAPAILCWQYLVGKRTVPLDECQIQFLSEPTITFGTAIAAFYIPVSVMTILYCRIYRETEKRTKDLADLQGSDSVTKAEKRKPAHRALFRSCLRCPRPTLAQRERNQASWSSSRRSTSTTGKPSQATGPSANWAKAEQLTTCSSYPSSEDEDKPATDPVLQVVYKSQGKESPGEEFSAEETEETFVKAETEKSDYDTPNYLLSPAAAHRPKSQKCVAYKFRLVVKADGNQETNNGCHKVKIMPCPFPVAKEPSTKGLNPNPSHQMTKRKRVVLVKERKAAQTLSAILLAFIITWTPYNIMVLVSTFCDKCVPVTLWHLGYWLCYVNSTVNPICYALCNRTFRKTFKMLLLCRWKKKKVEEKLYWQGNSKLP
Method: (§1) The antibody capture scintillation proximity technique previously described by DeLapp et al was used in a 96-well plate to determine GTP-γ-[35S] binding. One hundred μl (20–40 fmol/well) of membrane preparation from CHO cells that stably express the human M1-M5 muscarinic receptors (PerkinElmer Life and Analytical Sciences, Boston, MA) were incubated with varying concentration of test compound (final concentrations from 50pM to 1μM) for 30 min. One μM final concentration of GDP was added to M2 and M4 receptor membranes before incubation. […] (500 pM final concentration; Perkin Elmer Life and Analytical Sciences) was added to each well followed by 30 min of incubation. […] An anti-Gαq/11 antibody was used for the M1-, M3-, and M5 membranes, whereas an anti-Gαi-3 antibody was used for the M2- and M4 membranes (Eli Lilly and Company, Indianapolis, IN). […] By use of a Wallac MicroBeta TriLux scintillation counter (PerkinElmer), the plates were centrifuged for 10 min at 700 × g and counted for 1 min per well. The incubations took place at room temperature in GTP-binding assay buffer (20 mM Hepes, 100 mm NaCl, 5 mM MgC12, pH 7.4). The data were analyzed by use of nonlinear regression for a sigmoidal concentration response curve (GraphPad Prism v. 4.0). Data were normalized to a full agonist response (100 μM oxotremorine-M). […] The antagonist percent inhibition data were normalized to data generated with an EC90 concentration of acetylcholine. The mean relative EC50, IC50, and %Emax, and pKi values were calculated as a mean of at least three independent experiments±SEM. In order to obtain relevant comparisons between subtypes, the experimental system is routinely calibrated with reference agonists (oxotremorine-M, pilocarpine, MCN-A343) to measure full and partial agonism as well as to ensure that the system is not under- or over-reporting functional efficacies. The radioligand binding assays have earlier been described.

[3] = target: T2, human M4 muscarinic receptor (Homo sapiens, UniProt P08173); assay: as above; assay type: biochemical
T2 construct: purchased PerkinElmer Life and Analytical Sciences, Boston, MA
T2 sequence (P08173 1-479): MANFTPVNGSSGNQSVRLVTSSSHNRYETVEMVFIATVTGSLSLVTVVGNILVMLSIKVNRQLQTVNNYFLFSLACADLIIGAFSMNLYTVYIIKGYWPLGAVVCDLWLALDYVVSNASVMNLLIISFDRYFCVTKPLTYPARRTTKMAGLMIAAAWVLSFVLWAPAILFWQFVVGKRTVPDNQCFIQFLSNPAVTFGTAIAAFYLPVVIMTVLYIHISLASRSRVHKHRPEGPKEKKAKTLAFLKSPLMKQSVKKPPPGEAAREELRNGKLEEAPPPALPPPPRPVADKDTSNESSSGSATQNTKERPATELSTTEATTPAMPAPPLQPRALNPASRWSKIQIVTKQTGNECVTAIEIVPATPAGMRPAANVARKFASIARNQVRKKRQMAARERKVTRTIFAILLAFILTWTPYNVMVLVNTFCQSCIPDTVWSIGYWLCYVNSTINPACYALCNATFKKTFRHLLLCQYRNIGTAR
Method: as §1

[4] = target: T3, human M3 muscarinic receptor (Homo sapiens, UniProt P20309); assay: as above; assay type: biochemical
T3 construct: purchased PerkinElmer Life and Analytical Sciences, Boston, MA
Method: (§2) The antibody capture scintillation proximity technique previously described by DeLapp et al was used in a 96-well plate to determine GTP-γ-[35S] binding. One hundred μl (20–40 fmol/well) of membrane preparation from CHO cells that stably express the human M1-M5 muscarinic receptors (PerkinElmer Life and Analytical Sciences, Boston, MA) were incubated with varying concentration of test compound (final concentrations from 50pM to 1μM) for 30 min. One μM final concentration of GDP was added to M2 and M4 receptor membranes before incubation. […] (500 pM final concentration; Perkin Elmer Life and Analytical Sciences) was added to each well followed by 30 min of incubation. Then the labelled membranes were solubilized with 0.27% Nonidet P40 for 30 min where after they were incubated with 20 μl (final dilution of 1:400) of the appropriate rabbit polyclonal Gα antibody (Covance, Princeton, NJ) for 60 min. An anti-Gαq/11 antibody was used for the M1-, M3-, and M5 membranes, whereas an anti-Gαi-3 antibody was used for the M2- and M4 membranes (Eli Lilly and Company, Indianapolis, IN). After 60 min of incubation, 50 μl (1.25 mg/well) anti-rabbit scintillation proximity assay (SPA) beads (GE Healthcare, Piscataway, NJ) were added per well where after the plates were incubated for another 3 h. By use of a Wallac MicroBeta TriLux scintillation counter (PerkinElmer), the plates were centrifuged for 10 min at 700 × g and counted for 1 min per well. The incubations took place at room temperature in GTP-binding assay buffer (20 mM Hepes, 100 mm NaCl, 5 mM MgC12, pH 7.4). The data were analyzed by use of nonlinear regression for a sigmoidal concentration response curve (GraphPad Prism v. 4.0). Data were normalized to a full agonist response (100 μM oxotremorine-M). […] The antagonist percent inhibition data were normalized to data generated with an EC90 concentration of acetylcholine. The mean relative EC50, IC50, and %Emax, and pKi values were calculated as a mean of at least three independent experiments±SEM. In order to obtain relevant comparisons between subtypes, the experimental system is routinely calibrated with reference agonists (oxotremorine-M, pilocarpine, MCN-A343) to measure full and partial agonism as well as to ensure that the system is not under- or over-reporting functional efficacies. The radioligand binding assays have earlier been described.

[5] = target: T4, human M2 muscarinic receptor (Homo sapiens, UniProt P08172); assay: as above; assay type: biochemical
T4 construct: purchased PerkinElmer Life and Analytical Sciences, Boston, MA
T4 sequence (P08172 1-466): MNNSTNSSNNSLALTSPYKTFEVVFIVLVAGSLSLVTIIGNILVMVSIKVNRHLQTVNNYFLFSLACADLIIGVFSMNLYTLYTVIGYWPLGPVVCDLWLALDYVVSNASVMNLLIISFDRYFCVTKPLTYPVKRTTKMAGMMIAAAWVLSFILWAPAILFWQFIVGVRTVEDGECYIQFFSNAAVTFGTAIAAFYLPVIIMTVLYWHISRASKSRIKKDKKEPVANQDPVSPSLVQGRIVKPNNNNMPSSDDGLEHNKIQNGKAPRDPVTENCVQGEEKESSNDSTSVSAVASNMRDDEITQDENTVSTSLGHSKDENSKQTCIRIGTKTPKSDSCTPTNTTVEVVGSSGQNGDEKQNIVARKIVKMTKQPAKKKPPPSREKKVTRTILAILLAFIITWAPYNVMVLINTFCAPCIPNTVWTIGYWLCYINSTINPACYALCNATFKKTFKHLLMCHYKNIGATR
Method: as §2

[6] = system: schizophrenic patients; design: method as in PMID 13425257; details: subcutaneous injection, twenty-three schizophrenic patients; cited from earlier work
[7] = system: antipsychotic-naïve Cebus Apella monkeys; assay: Side effects of BuTAC alone or with d-amphetamine; assay type: in vivo; details: d-amphetamine 0.5 mg/kg alone
Method: (§3) Seven male Cebus Apella monkeys were used for evaluation the anti-amphetamine effect and the side effect profile of BuTAC. These monkeys were never before administered antipsychotics and had never experienced EPS, but had previously been administered amphetamine. For further evaluation of the EPS potential of BuTAC, the compound was tested in four male and female monkeys, all sensitized to drug-induced EPS by earlier chronic treatment with classical antipsychotic drugs.
(§4) All monkeys received all treatments with at least one week between tests and thus served as their own control. To avoid extended physical contact with the experimenter, the cages were reduced in sized by moving the back wall of the cage closer to the front wall to lightly immobilize the monkey while injecting the test substance in the thigh. This was done at 9 am at test days. After the appropriate pre-treatment time, the monkeys were videotaped in their cages at predefined time points after drug injection.
(§5) The rated primate behaviours and symptoms were the following: unrest, stereotypy, arousal, sedation and bradykinesia (Table 1). All monkeys were videotaped in 90-sec. sessions at specific time points throughout the test sessions. The videotapes were rated for amphetamine-induced behaviours and EPS by two experienced raters blinded to the treatment of the animal by means of a rating scale adapted from Peacock et al. and previously described by Andersen et al. (Table 1). In case of any discrepancy between the two ratings, the recording in question was re-evaluated and a rating agreed upon. The monkeys were videotaped at t = 30, 60, 90, 135, 150, 165, 180, 240, 300 min after BuTAC (or vehicle) administration. For the combination studies, d-amphetamine was injected at t = 120 min. Oral dyskinesia was measured in counts per 90 sec. The severity of other behaviours and symptoms were rated on a scale ranging from 0 (not present) to 6 (extreme presence).
(§6) For evaluation of anti-amphetamine effects, BuTAC was tested in doses of 0.001, 0.003, 0.01 mg/kg in combination with 0.5 mg/kg of d-amphetamine. BuTAC or peanut oil vehicle was injected s.c. at approximately 9 a.m. Pre-treatment time before s.c. injection of amphetamine was 120 min. For evaluation of side effects, BuTAC was tested alone at doses of 0.001, 0.003 and 0.01 mg/kg in antipsychotic-naïve monkeys and at doses of 0.003 and 0.01 mg/kg in monkeys sensitized to extrapyramidal side effects (EPS) by earlier long-term treatment with first generation antipsychotics. […] None of the animals were sacrificed.
(§7) Data from the experiments where BuTAC was administered alone collected at t = 60, 180, 300 min are presented. For the d-amphetamine / BuTAC study, data collected at t(amp) = 60, 120 and 180 min (t = 180, 240, 300 min) are reported. Data were analyzed for overall treatment effects at each time point by means of the non-parametric Friedman’s test for repeated measures. The Student Newman-Keuls comparison procedure was used to analyze for specific dose effects. For all tests, the accepted level of significance was p<0.05.

[8] = system: antipsychotic-naïve Cebus Apella monkeys; assay: d-Amphetamine-induced behaviour (unrest, stereotypies, arousal), video rating; assay type: in vivo
Method: as §3, §4, §5, §6, §7

[9] = system: monkeys; assay: BuTAC-induced emesis and its inhibition by domperidone; assay type: in vivo, Cebus Apella
Method: S1 Table. Emesis BuTAC / Domperidone
BuTAC 0.01 mg/kg / 1 in 7
Domperidone was purchased from Tocris Bioscience (Bristol, United Kingdom) and dissolved
in 0.9% saline. The compound was administered subcutaneously where after the animals

[10] = system: monkeys; design: method as in PMID 10435384; details: cited from earlier work
[11] = antagonist mode, maximal inhibition of EC90 agonist response
[12] = percentage of maximum 100 μM oxotremorine-M signal, read-out: % Emax
[13] = percentage of maximum 100 μM oxotremorine-M signal

T3 sequence (P20309 whole entry): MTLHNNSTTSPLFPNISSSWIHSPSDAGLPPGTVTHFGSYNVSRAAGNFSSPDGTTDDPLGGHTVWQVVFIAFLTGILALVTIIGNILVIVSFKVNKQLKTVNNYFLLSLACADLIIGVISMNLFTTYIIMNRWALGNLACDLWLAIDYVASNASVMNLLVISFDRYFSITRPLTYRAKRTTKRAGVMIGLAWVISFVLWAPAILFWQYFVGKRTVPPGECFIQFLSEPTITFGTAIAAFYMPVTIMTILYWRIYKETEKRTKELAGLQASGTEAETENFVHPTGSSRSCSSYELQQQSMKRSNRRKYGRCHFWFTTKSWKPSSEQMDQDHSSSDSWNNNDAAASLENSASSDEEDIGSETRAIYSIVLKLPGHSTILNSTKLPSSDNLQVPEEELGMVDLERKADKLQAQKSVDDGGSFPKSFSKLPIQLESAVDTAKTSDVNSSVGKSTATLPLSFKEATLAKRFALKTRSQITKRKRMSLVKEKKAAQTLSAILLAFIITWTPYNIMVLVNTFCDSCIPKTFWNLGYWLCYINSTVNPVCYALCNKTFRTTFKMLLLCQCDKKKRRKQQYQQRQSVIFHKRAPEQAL
Chain of M3AChR (P20309 whole entry): as above

CCCCCCOc1nsnc1C1=CCCN(C)C1 [Xanomeline, xanomeline]
Ki [1]: 27.5 nM
% Inhibition [2, 11]: 81.8 ± 18.5%
Emax [2, 12]: 28.7 ± 0.7%
% Inhibition [3, 11]: 51.4 ± 2.61%
Emax [3, 12]: 41.8 ± 1.99%
EC50 ([4]; agonist mode, mean ± SEM of negative log-transformed values, read-out: Rel pEC50 (converted)): 17.8 nM
IC50 ([4]; antagonist mode against EC90 of agonist, negative log-transformed, read-out: Rel pIC50 (converted)): 832 nM
% Inhibition [4, 11]: 87.6 ± 6.79%
Emax [4, 13]: 13.6 ± 0.56%
% Inhibition [5, 11]: 19.4 ± 0.77%
Emax [5, 13]: 55.2 ± 5.12%

COC(=O)C1=CCCN(C)C1 [arecoline]
Patients with clinical improvement (“lucid intervals”) [6]: more than 80%

C[C@H](N)Cc1ccccc1.C[C@H](N)Cc1ccccc1.O=S(=O)(O)O [d-amphetamine, d-Amphetamine sulphate, reference compound]
Emetic events (vomiting) (monkeys affected) [7]: 0
Salivation (monkeys affected) [7]: 0
Sedation 2 ≤ X ≤ 5 (monkeys affected) [7]: 0
Stereotypies ([8]; amphetamine 0.5 mg/kg alone, all three test times): significantly induced stereotypies
Arousal ([8]; d-amphetamine 0.5 mg/kg alone, all test times): induced arousal
Unrest ([8]; d-amphetamine 0.5 mg/kg alone, all time points, relative to vehicle): significantly increased unrest

O=c1[nH]c2ccccc2n1CCCN1CCC(n2c(=O)[nH]c3cc(Cl)ccc32)CC1 [domperidone]
Emetic events (vomiting), monkeys with emesis ([9]; BuTAC 0.01 mg/kg / domperidone 0.05 mg/kg s.c.): 3/7
Emetic events (vomiting), monkeys with emesis ([9]; BuTAC 0.01 mg/kg / domperidone 0.10 mg/kg s.c.): 1/7
Effect on BuTAC (0.01 mg/kg)-induced emesis ([9]; domperidone 0.05 and 0.1 mg/kg): dose dependently inhibited

O=C(CCCN1CCC(O)(c2ccc(Cl)cc2)CC1)c1ccc(F)cc1 [haloperidol]
Minimal effective dose to inhibit amphetamine-induced behaviour [10]: 0.015 mg/kg
